Reference: PubChem BioAssay (NCI)
Several values for one entry are separate records, joined by “and”; a condition that tells them apart may be missing. Identical values can stand only once.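 Growth conditions: 96-well plates. Treatment: test compound, 48 hours, 5 concentrations. Analysis: linear interpolation between bracketing concentrations; unreached endpoints set to highest concentration. Here, GI50 denotes the concentration required for 50% inhibition of growth. The concentration for full growth arrest is given as TGI.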

test system: K-562 leukemia; assay: growth of human tumour cells (NCI), 48 h

SMILES | GI50 | TGI
CCOC(=O)c1c(C)n(Cc2ccc(Cl)cc2Cl)c2c1c(CN(C)C)c(O)c1[nH]cnc12 | 3.22 µM | 15.5 µM
COc1cccc2c1C(=O)c1c(O)c3c(c(O)c1C2=O)C[C@@](O)(C(C)=O)C[C@@H]3OC1OC(C)C(O)C(N)C1Br (some centres undefined) | 0.0203 µM | 1.64 µM and 1.03 µM
CN1C/C=C\CCOc2cccc(c2)-c2ccnc(n2)Nc2cccc(c2)C1 | 0.0931 µM | 6.21 µM
Oc1ccccc1C(Sc1nc2ccccc2s1)Sc1nc2ccccc2s1 | – | > 100 µM
COC1=C(C)C(=O)c2c(c(COC(N)=O)c3n2CC2C3N2C)C1=O (centres undefined) | – | 0.341 µM
COc1ccc(Cn2cc3c(c2-c2ccccc2)CC(C)(C)c2cnoc2-3)cc1 | 0.377 µM | > 100 µM
c1cc(CNC23CC4CC(CC(C4)C2)C3)cc(C[N+](Cc2cccc(CNC34CC5CC(CC(C5)C3)C4)c2)(Cc2cccc(CNC34CC5CC(CC(C5)C3)C4)c2)Cc2cccc(CNC34CC5CC(CC(C5)C3)C4)c2)c1 (centres undefined) | 6.1 µM | 151 µM
Oc1cccnc1CN1CCCCC1 | – | > 100 µM
CN(C)C(=O)c1cc2cnc(Nc3ccc(-c4csc5c(=S)cc(N6CCOCC6)oc45)cc3)nc2n1C1CCCC1 | 0.939 µM | > 50 µM
COC1=CC(=O)c2nc(-c3cccc(C)n3)[nH]c2C1=O | > 100 µM | > 100 µM

test system: SK-MEL-2 melanoma; assay: growth of human tumour cells (NCI), 48 h

SMILES | GI50 | TGI
CCOC(=O)c1c(C)n(Cc2ccc(Cl)cc2Cl)c2c1c(CN(C)C)c(O)c1[nH]cnc12 | 19.9 µM | 39.8 µM
COc1cccc2c1C(=O)c1c(O)c3c(c(O)c1C2=O)C[C@@](O)(C(C)=O)C[C@@H]3OC1OC(C)C(O)C(N)C1Br (some centres undefined) | 0.198 µM | 0.715 µM and 0.704 µM
CN1C/C=C\CCOc2cccc(c2)-c2ccnc(n2)Nc2cccc(c2)C1 | 0.0397 µM | 0.132 µM
Oc1ccccc1C(Sc1nc2ccccc2s1)Sc1nc2ccccc2s1 | – | > 100 µM
COC1=C(C)C(=O)c2c(c(COC(N)=O)c3n2CC2C3N2C)C1=O (centres undefined) | – | 0.109 µM
COc1ccc(Cn2cc3c(c2-c2ccccc2)CC(C)(C)c2cnoc2-3)cc1 | 2.9 µM | 53.6 µM
c1cc(CNC23CC4CC(CC(C4)C2)C3)cc(C[N+](Cc2cccc(CNC34CC5CC(CC(C5)C3)C4)c2)(Cc2cccc(CNC34CC5CC(CC(C5)C3)C4)c2)Cc2cccc(CNC34CC5CC(CC(C5)C3)C4)c2)c1 (centres undefined) | 4.44 µM | 13.4 µM
Oc1cccnc1CN1CCCCC1 | – | > 100 µM
CN(C)C(=O)c1cc2cnc(Nc3ccc(-c4csc5c(=S)cc(N6CCOCC6)oc45)cc3)nc2n1C1CCCC1 | 0.971 µM | 2.84 µM
COC1=CC(=O)c2nc(-c3cccc(C)n3)[nH]c2C1=O | 52.4 µM | > 100 µM

test system: A498 renal; assay: growth of human tumour cells (NCI), 48 h

SMILES | GI50 | TGI
CCOC(=O)c1c(C)n(Cc2ccc(Cl)cc2Cl)c2c1c(CN(C)C)c(O)c1[nH]cnc12 | 20 µM | 35 µM
COc1cccc2c1C(=O)c1c(O)c3c(c(O)c1C2=O)C[C@@](O)(C(C)=O)C[C@@H]3OC1OC(C)C(O)C(N)C1Br (some centres undefined) | 0.0657 µM | 0.532 µM and 0.228 µM
CN1C/C=C\CCOc2cccc(c2)-c2ccnc(n2)Nc2cccc(c2)C1 | 0.0572 µM | 0.156 µM
Oc1ccccc1C(Sc1nc2ccccc2s1)Sc1nc2ccccc2s1 | – | > 100 µM
COC1=C(C)C(=O)c2c(c(COC(N)=O)c3n2CC2C3N2C)C1=O (centres undefined) | – | 0.206 µM
COc1ccc(Cn2cc3c(c2-c2ccccc2)CC(C)(C)c2cnoc2-3)cc1 | 1.4 µM | 7.72 µM
c1cc(CNC23CC4CC(CC(C4)C2)C3)cc(C[N+](Cc2cccc(CNC34CC5CC(CC(C5)C3)C4)c2)(Cc2cccc(CNC34CC5CC(CC(C5)C3)C4)c2)Cc2cccc(CNC34CC5CC(CC(C5)C3)C4)c2)c1 (centres undefined) | 4.98 µM | 29.5 µM
Oc1cccnc1CN1CCCCC1 | – | > 100 µM
CN(C)C(=O)c1cc2cnc(Nc3ccc(-c4csc5c(=S)cc(N6CCOCC6)oc45)cc3)nc2n1C1CCCC1 | 0.103 µM | 1.12 µM
COC1=CC(=O)c2nc(-c3cccc(C)n3)[nH]c2C1=O | 16.4 µM | 35.2 µM

test system: MDA-MB-435; assay: growth of human tumour cells (NCI), 48 h

SMILES | GI50 | TGI
CCOC(=O)c1c(C)n(Cc2ccc(Cl)cc2Cl)c2c1c(CN(C)C)c(O)c1[nH]cnc12 | 23.6 µM | 51.1 µM
COc1cccc2c1C(=O)c1c(O)c3c(c(O)c1C2=O)C[C@@](O)(C(C)=O)C[C@@H]3OC1OC(C)C(O)C(N)C1Br (some centres undefined) | – | 1.13 µM
CN1C/C=C\CCOc2cccc(c2)-c2ccnc(n2)Nc2cccc(c2)C1 | 0.0624 µM | 0.195 µM
Oc1ccccc1C(Sc1nc2ccccc2s1)Sc1nc2ccccc2s1 | – | > 100 µM
COC1=C(C)C(=O)c2c(c(COC(N)=O)c3n2CC2C3N2C)C1=O (centres undefined) | – | 0.0921 µM
COc1ccc(Cn2cc3c(c2-c2ccccc2)CC(C)(C)c2cnoc2-3)cc1 | 0.279 µM | 1.01 µM
c1cc(CNC23CC4CC(CC(C4)C2)C3)cc(C[N+](Cc2cccc(CNC34CC5CC(CC(C5)C3)C4)c2)(Cc2cccc(CNC34CC5CC(CC(C5)C3)C4)c2)Cc2cccc(CNC34CC5CC(CC(C5)C3)C4)c2)c1 (centres undefined) | 3.45 µM | 8.81 µM
Oc1cccnc1CN1CCCCC1 | – | > 100 µM
CN(C)C(=O)c1cc2cnc(Nc3ccc(-c4csc5c(=S)cc(N6CCOCC6)oc45)cc3)nc2n1C1CCCC1 | 0.687 µM | > 50 µM
COC1=CC(=O)c2nc(-c3cccc(C)n3)[nH]c2C1=O | 35.6 µM | > 100 µM

test system: NCI-H23 lung; assay: growth of human tumour cells (NCI), 48 h

SMILES | GI50 | TGI
CCOC(=O)c1c(C)n(Cc2ccc(Cl)cc2Cl)c2c1c(CN(C)C)c(O)c1[nH]cnc12 | 0.271 µM | 5.95 µM
COc1cccc2c1C(=O)c1c(O)c3c(c(O)c1C2=O)C[C@@](O)(C(C)=O)C[C@@H]3OC1OC(C)C(O)C(N)C1Br (some centres undefined) | 0.0174 µM | 0.206 µM and 0.177 µM
CN1C/C=C\CCOc2cccc(c2)-c2ccnc(n2)Nc2cccc(c2)C1 | 0.0717 µM | 0.599 µM
Oc1ccccc1C(Sc1nc2ccccc2s1)Sc1nc2ccccc2s1 | – | > 100 µM
COC1=C(C)C(=O)c2c(c(COC(N)=O)c3n2CC2C3N2C)C1=O (centres undefined) | – | < 0.0363 µM
COc1ccc(Cn2cc3c(c2-c2ccccc2)CC(C)(C)c2cnoc2-3)cc1 | 2.29 µM | > 100 µM
c1cc(CNC23CC4CC(CC(C4)C2)C3)cc(C[N+](Cc2cccc(CNC34CC5CC(CC(C5)C3)C4)c2)(Cc2cccc(CNC34CC5CC(CC(C5)C3)C4)c2)Cc2cccc(CNC34CC5CC(CC(C5)C3)C4)c2)c1 (centres undefined) | 6.38 µM | 26.6 µM
Oc1cccnc1CN1CCCCC1 | – | > 100 µM
CN(C)C(=O)c1cc2cnc(Nc3ccc(-c4csc5c(=S)cc(N6CCOCC6)oc45)cc3)nc2n1C1CCCC1 | 0.699 µM | > 19.5 µM
COC1=CC(=O)c2nc(-c3cccc(C)n3)[nH]c2C1=O | 28.3 µM | > 100 µM
